Key:
Type in all cases: biochemical
papain = target: T1, papain (Carica papaya, UniProt P00784); assay: Inhibition of papain, incubation method; conditions: second-order rate constant, NI = no inhibition; for kinact/KI: pH 7.5, read-out: kobs/[I] papain
T1 sequence (P00784 134-345): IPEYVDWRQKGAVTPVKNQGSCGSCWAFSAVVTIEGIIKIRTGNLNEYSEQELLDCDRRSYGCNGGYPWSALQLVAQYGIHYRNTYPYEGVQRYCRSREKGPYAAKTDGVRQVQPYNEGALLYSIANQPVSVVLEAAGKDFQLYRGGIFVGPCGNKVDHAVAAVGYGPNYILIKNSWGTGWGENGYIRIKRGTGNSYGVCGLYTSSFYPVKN
Procedure: (§1) The release of 7-amino-4-methylcoumarin was monitored (λex=360 nm, λem=465 nm) using a Tecan Spectra Fluor microplate reader. Pseudo first-order inactivation rate constants were obtained from plots of In vt/vo versus time.
The incubation method was also used for papain. The inhibition incubation buffer for papain was 50 mM Hepes buffer at pH 7.5, containing 2.5 mM DTT and 2.5 mM EDTA. The assay used the substrate Z-Phe-Arg-pNA (53.7 μM) in the same buffer. The approximate concentration of papain added to the incubation buffer was 0.29 mg/mL. The release of p-nitroanilide was monitored at 405 nm with a Molecular Devices Thermomax microplate reader.

cathepsin B = cathepsin B (Homo sapiens, UniProt P07858); assay: Inhibition of cathepsin B, incubation method; conditions: second-order rate constant, NI = no inhibition; for kinact/KI: pH 6, read-out: kobs/[I] cathepsin B
Text: as §1

caspase-3 = target: T2, caspase-3 (Homo sapiens, UniProt P42574); assay: Caspase-3 progress curve assay; conditions: substrate Z-DEVD-AFC; NI = no inhibition
T2 construct: made in house; host or cells: E. coli
T2 sequence (P42574 29-175 limits assumed): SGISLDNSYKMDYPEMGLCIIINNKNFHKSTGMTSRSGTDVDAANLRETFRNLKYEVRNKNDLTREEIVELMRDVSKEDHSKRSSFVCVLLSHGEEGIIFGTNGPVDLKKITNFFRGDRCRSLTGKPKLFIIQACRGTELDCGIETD
T2 sequence (P42574 176-277 limits assumed): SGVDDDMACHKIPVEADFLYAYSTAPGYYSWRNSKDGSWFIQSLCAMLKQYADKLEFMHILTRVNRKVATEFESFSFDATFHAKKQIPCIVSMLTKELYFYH
Procedure: Caspase-3, -6, and -8. Caspase-3, -6 and -8 were expressed in E. coli and purified according to methods previously described by Stennicke and Salvesen. Assays using the fluorogenic substrate Z-DEVD-AFC (λex=400 nm, λem=505 nm) were carried out on a Molecular Devices fMax fluorescence microplate reader. Inhibition rates and equilibria were determined by the progress curve method. The standard 100 μL reaction was started by adding enzyme to a mixture of substrate (final concentration of Z-DEVD-AFC 100 μM) and various amounts of inhibitor in buffer (50 mM Hepes, 100 mM NaCl, 0.1% (w/v) CHAPS, sucrose 10% (w/v), and 10 mM DTT, at pH 7.4). The caspases were pre-activated for 10 min at 37° C. in the presence of 10 mM DTT.

caspase-1 = target: T3, caspase-1 (Homo sapiens, UniProt P29466, D381E); assay: Caspase-1 progress curve assay; conditions: D381E variant, substrate Ac-YVAD-AMC, 30° C.
T3 construct: His tag (N); made in house; host or cells: E. coli
T3 sequence (P29466 120-297 limits assumed): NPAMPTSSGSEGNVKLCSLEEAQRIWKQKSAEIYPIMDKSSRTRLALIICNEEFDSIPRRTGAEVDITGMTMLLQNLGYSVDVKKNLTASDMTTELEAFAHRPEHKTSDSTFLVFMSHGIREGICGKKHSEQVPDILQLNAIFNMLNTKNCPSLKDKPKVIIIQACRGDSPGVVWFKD
T3 sequence (P29466 317-404 D381E limits assumed): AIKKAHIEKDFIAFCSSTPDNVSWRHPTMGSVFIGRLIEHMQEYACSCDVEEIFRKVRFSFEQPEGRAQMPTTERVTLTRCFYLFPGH
Text: Caspase-1. The preparation of the autolytically stable caspase-1 variant used in these studies has been described previously. Briefly, the variant contains a mutation (D381E) which renders it resistant to autolytic inactivation, but has no detectable affect on enzyme activity as compared to the naturally occurring enzyme. The enzyme variant was expressed in E. coli, purified first by immobilized metal chromatography via the N-terminal N-His tag, treated with excess oxidized glutathione to stabilize the reactive thiolate, and then re-purified by size-exclusion chromatography.
Inhibition data was measured using the progress curve assay method. Serial dilutions of each compound were prepared using an initial 8-fold dilution of a DMSO stock into HGE (100 mM HEPES,20% glycerol v/v, 0.5 mM EDTA), followed by seven serial two-fold dilutions into HGE and 12.5% DMSO, thus maintaining constant DMSO through the dilution series. Ten μL of diluted stocks or of vehicle (HGE and 12.5% DMSO) were placed in triplicate onto a 96-well microtiter plate, allowing several compounds to be tested on each plate. The plate was covered to minimize evaporation, and the plate was pre-warmed to 30° C. for 20 minutes. Enzyme was diluted into 10.0 mL of assay buffer (HGE, 5 mM DTT, plus 15 μM Ac-YVAD-AMC, 2 nM approximate final enzyme concentration), and this activated reaction mixture was added to the plate at 90 μL/well. Progress of substrate hydrolysis was monitored for 900 s in a LabSystems (Needham, Mass.) Fluoroskan Ascent fluorescent plate-reader using 385 and 460 nm excitation and emission filters, respectively, and a photomultiplier gain setting of 10. Triplicate curves were averaged and fit by nonlinear regression to the equation for irreversible inactivation shown below.
[formula] where F0 was routinely fixed to zero, since fluorescence values were always adjusted to an origin of 0. The second order rate constant kon (M^−1s^−1) was obtained from the slopes by linear regression, and errors represent the standard deviation of the regression slope.

kobs/[I] papain (papain) [M⁻¹ s⁻¹]	k2 caspase-3 (caspase-3) [M⁻¹ s⁻¹]	k2 caspase-1 (caspase-1) [M⁻¹ s⁻¹]	Compound	also measured
			O=C(OCc1ccccc1)N(NCc1ccccc1)C(=O)[C@@H]1O[C@H]1CCc1ccccc1 (relative stereo) [Cbz-APhe-trans-EP-CH2CH2Ph, trans-3-(N^2-Benzyl-N^1-benzyloxycarbonylhydrazinocarbonyl)-2-(2-phenylethyl)oxirane]	kinact/KI (papain): 0.92 M⁻¹ s⁻¹
0.7			CC(C)CN(NC(=O)[C@H](Cc1ccccc1)NC(=O)OCc1ccccc1)C(=O)[C@@H]1O[C@H]1CCc1ccccc1 (relative stereo) [Cbz-Phe-ALeu-trans-EP-CH2CH2Ph]	
			C[C@H](NC(=O)OCc1ccccc1)C(=O)N[C@@H](C)C(=O)NN(CC(N)=O)C(=O)[C@@H]1O[C@H]1C(=O)OCc1ccccc1 (relative stereo) [Cbz-Ala-Ala-AAsn-trans-EP-COOCH2Ph, trans-3-(N^2-(N-Benzyloxycarbonylalanylalanyl)-N^1-carbamoylmethylhydrazinocarbonyl)oxirane-2-carboxylic Acid Benzyl Ester]	kinact/KI (cathepsin B): 1.09 M⁻¹ s⁻¹
	3250 ± 160	19570	CCOC(=O)[C@@H]1O[C@H]1C(=O)N(CC(=O)O)NC(=O)[C@@H](NC(=O)[C@H](CCC(=O)O)NC(=O)[C@H](CC(C)C)NC(=O)OCc1ccccc1)[C@@H](C)O [26c (R,R), (2R,3R)-3-(N^2-(N-Benzyloxycarbonylleucylglutamylthreonyl)-N^1-carboxymethylhydrazinocarbonyl)oxirane-2-carboxylic Acid Ethyl Ester]	kinact/KI (papain): 0.24 M⁻¹ s⁻¹
0.5			O=C(N[C@@H](Cc1ccccc1)C(=O)NN(Cc1ccccc1)C(=O)[C@@H]1O[C@H]1CCc1ccccc1)OCc1ccccc1 (relative stereo) [Cbz-Phe-APhe-trans-EP-CH2CH2Ph, trans-3-(N^2-(N-3-Benzyloxyphenylalanyl)-N^1-benzylhydrazinocarbonyl)-2-(2-phenylethyl)oxirane]	
1.39			CCOC(=O)[C@@H]1O[C@H]1C(=O)N(CC(C)C)NC(=O)C(Cc1ccc2ccccc2c1)NC(=O)CCC(=O)O (relative stereo) [Suc-Np2-ALeu-trans-EP-COOEt, trans-3-(N^2-(N-Succinyl-2-naphthylalanyl)-N^1-isobutylhydrazinocarbonyl)oxirane-2-carboxylic Acid Ethyl Ester]	kobs/[I] cathepsin B (cathepsin B): 0.8 M⁻¹ s⁻¹
			CCOC(=O)[C@@H]1O[C@H]1C(=O)N(CC(N)=O)NC(=O)[C@H](C)NC(=O)[C@H](C)NC(=O)OCc1ccccc1 (relative stereo) [Cbz-Ala-Ala-AAsn-trans-EP-COOEt, trans-3-(N^2-(N-Benzyloxycarbonylalanylalanyl)-N^1-carbamoylmethylhydrazinocarbonyl)oxirane-2-carboxylic Acid Ethyl Ester]	kinact/KI (cathepsin B): 1.27 M⁻¹ s⁻¹
			CCOC(=O)[C@@H]1O[C@H]1C(=O)N(CC(C)C)NC(=O)[C@H](CC(C)C)NC(=O)[C@H](CC(C)C)NC(=O)OCc1ccccc1 [Cbz-Leu-Leu-ALeu-(2R, 3R)-EP-COOEt, (2R,3R)-3-(N^2-(N-Benzyloxycarbonylleucylleucyl)-N^1-isobutylhydrazinocarbonyl)oxirane-2-carboxylic Acid Ethyl Ester]	kinact/KI (papain): 20.6 M⁻¹ s⁻¹
			CCOC(=O)[C@H]1O[C@@H]1C(=O)N(CCC(N)=O)NC(=O)[C@H](Cc1ccccc1)NC(=O)[C@H](CC(C)C)NC(=O)OCc1ccccc1 [Cbz-Leu-Phe-AGln-(2S, 3S)-EP-COOEt, (2S,3S)-3-(N^2-(N-Benzyloxycarbonylleucylphenylalanyl)-N^1-carbamoylethylhydrazinocarbonyl)oxirane-2-carboxylic Acid Ethyl Ester]	kinact/KI (cathepsin B): 4.73 M⁻¹ s⁻¹
0.5			CCCCC(NC(=O)OC(C)(C)C)C(=O)NN(CCc1ccccc1)C(=O)C1OC1CCc1ccccc1 (stereo not drawn) [Boc-Nle-AHph-trans-EP-CH2CH2Ph, Boc-Nle-AHph-(trans)-EP-CH2CH2Ph]	
	3210 ± 315	25730	CCOC(=O)[C@H]1O[C@@H]1C(=O)N(CC(=O)O)NC(=O)[C@@H](NC(=O)[C@H](CCC(=O)O)NC(=O)[C@H](CC(C)C)NC(=O)OCc1ccccc1)[C@@H](C)O [26c (S,S), (2S,3S)-3-(N^2-(N-Benzyloxycarbonylleucylglutamylthreonyl)-N^1-carboxymethylhydrazinocarbonyl)oxirane-2-carboxylic Acid Ethyl Ester]	kinact/KI (papain): 0.47 M⁻¹ s⁻¹
	1470 ± 40	52140 ± 5295	CC(C)[C@H](NC(=O)CCc1ccccc1)C(=O)N[C@@H](C)C(=O)NN(CC(=O)O)C(=O)[C@H]1O[C@@H]1C(=O)OCc1ccccc1 [23d (S,S)]	kobs/[I] cathepsin B (cathepsin B): 0.81 M⁻¹ s⁻¹
	1110 ± 100	17150 ± 2254	CC(C)[C@H](NC(=O)CCc1ccccc1)C(=O)N[C@@H](C)C(=O)NN(CC(=O)O)C(=O)[C@H]1O[C@@H]1C(=O)NCCc1ccccc1 [23h (S,S), (2S,3S)-2-(2-Phenethylcarbamoyl)-3-(N^2-(3-phenylpropanoylvalylalanyl)-N^1-carboxymethylhydrazinocarbonyl)oxirane]	
	3115 ± 125	13000 ± 980	CC[C@H](C)[C@H](NC(=O)OCc1ccccc1)C(=O)N[C@@H](CCC(=O)O)C(=O)N[C@H](C(=O)NN(CC(=O)O)C(=O)[C@@H]1O[C@H]1C(=O)OCc1ccccc1)[C@@H](C)O [27d (R,R), (2R,3R)-3-(N^2-(N-Benzyloxycarbonylisoleucylglutamylthreonyl)-N^1-carboxymethylhydrazinocarbonyl)oxirane-2-carboxylic Acid Benzyl Ester]	
	470 ± 77	1040 ± 455	(2R,3R)-2-(1-Amido-phenethylcarbamoyl)-3-(N^2-(N-benzyloxycarbonylaspartylglutamylvalyl)-N^1-carboxymethylhydrazinocarbonyl)oxirane [24l]	

Compound	kobs/[I] papain (papain) [M⁻¹ s⁻¹]	k2 caspase-3 (caspase-3) [M⁻¹ s⁻¹]	k2 caspase-1 (caspase-1) [M⁻¹ s⁻¹]	also measured
CCC(NC(=O)OC(C)(C)C)C(=O)NN(CCc1ccccc1)C(=O)[C@@H]1O[C@H]1CCc1ccccc1 (relative stereo) [Boc-Abu-AHph-trans-EP-CH2CH2Ph, trans-3-(N^2-(N-tert-Butoxycarbonyl-α-aminobutanoyl)-N^1-phenylethylhydrazinocarbonyl)-2-(2-phenylethyl)oxirane]	0.2			
